pIC50: −log10 of the molar value.
Legend:
[1] = target: T1, human JAK2 kinase domain (JH1) (Homo sapiens, UniProt O60674); assay: JH1 biochemical assay for JAK2 (ADP-Glo kinase assay, recombinant JH1 catalytic domain, JAK3-974 peptide, 15 μM ATP); conditions: JAK2 JH1, ADP-Glo
T1 construct: recombinantly generated catalytic kinase (also known as JH1) domain of human JAK1, JAK2, JAK3 and TYK2
How it was run: (§1)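 Luminescent ADP read-out after residual ATP depletion, 100 min reaction. Kinase domain concentrations were 4 nM (JAK1), 0.2 nM (JAK2), 0.3 nM (JAK3) and 2 nM (TYK2), each with 50 μM peptide. IC50 values came from 4-parameter logistic fits over 11 points, 3-fold steps, top 10 μM or 1 μM.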

[2] = target: T2, human JAK1 kinase domain (JH1) (Homo sapiens, UniProt P23458); assay: JH1 biochemical assay for JAK1 (ADP-Glo kinase assay, recombinant JH1 catalytic domain, JAK3-342 peptide, 35 μM ATP); conditions: JAK1 JH1, ADP-Glo
T2 construct: recombinantly generated catalytic kinase (also known as JH1) domain of human JAK1, JAK2, JAK3 and TYK2
How it was run: as §1

[3] = target: T3, human JAK3 kinase domain (JH1) (Homo sapiens, UniProt P52333); assay: JH1 biochemical assay for JAK3 (ADP-Glo kinase assay, recombinant JH1 catalytic domain, JAK3-974 peptide, 4 μM ATP); conditions: JAK3 JH1, ADP-Glo
T3 construct: recombinantly generated catalytic kinase (also known as JH1) domain of human JAK1, JAK2, JAK3 and TYK2
How it was run: as §1

[4] = target: Tyk2 kinase activity on STAT4 in NK92 cells (Homo sapiens, UniProt P29597); assay: pSTAT4 cell assay (MSD; NK92 cells, 30 ng/mL IL2 stimulation); format: cell-based; conditions: 30 ng/mL IL2, 15 minutes
How it was run: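 IC50 values derive from 4-parameter logistic fits of normalized percent activity against log compound concentration. Phospho-STAT was measured by MSD with anti-STAT4 antibodies after 15 min of 30 ng/mL IL2 in serum-starved NK92 cells pretreated 1 hr with compound.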

[5] = target: T4, human TYK2 kinase domain (JH1) (Homo sapiens, UniProt P29597); assay: JH1 biochemical assay for TYK2 (ADP-Glo kinase assay, recombinant JH1 catalytic domain, JAK3-974 peptide, 10 μM ATP); conditions: TYK2 JH1, ADP-Glo
T4 construct: recombinantly generated catalytic kinase (also known as JH1) domain of human JAK1, JAK2, JAK3 and TYK2
T4 sequence (P29597 897-1176 limits assumed): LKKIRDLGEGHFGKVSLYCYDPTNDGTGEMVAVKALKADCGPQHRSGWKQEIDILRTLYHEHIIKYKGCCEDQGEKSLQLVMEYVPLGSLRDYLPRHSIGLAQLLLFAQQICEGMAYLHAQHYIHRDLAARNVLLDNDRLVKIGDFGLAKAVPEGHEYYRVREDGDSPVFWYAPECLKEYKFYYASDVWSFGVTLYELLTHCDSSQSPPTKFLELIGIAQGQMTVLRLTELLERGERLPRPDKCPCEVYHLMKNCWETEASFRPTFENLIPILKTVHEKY
How it was run: as §1

[6] = target: JAK2 kinase activity on STAT5 in TF1 cells (Homo sapiens, UniProt O60674); assay: pSTAT5 cell assay (MSD; TF1 cells, 30 ng/mL IL-3 stimulation); format: cell-based; conditions: 30 ng/mL IL-3, 15 minutes
How it was run: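 Serum-starved TF1 cells with native JAK2/STAT5 were pretreated 1 h with compound (10-point four-fold dilutions from 10 μM), then stimulated 15 min with 30 ng/mL IL-3. pSTAT5 in lysates quantified by MSD immunoassay; normalized percent activity fitted to a 4-parameter logistic curve for IC50.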

[7] = target: JAK1 kinase activity on STAT3 in TF1 cells (Homo sapiens, UniProt P23458); assay: pSTAT3 cell assay (MSD; TF1 cells, 30 ng/mL IL-6 stimulation); format: cell-based; conditions: 30 ng/mL IL-6, 15 minutes
How it was run: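 Readout is pSTAT3 in lysates, quantified on an MSD plate assay using anti-STAT3 antibodies. Before lysis, TF1 cells had been serum-starved, exposed to compound for 1 hour across ten four-fold dilutions starting at 10 μM, and given IL-6 for 15 minutes.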

T1 sequence (O60674 849-1124 limits assumed): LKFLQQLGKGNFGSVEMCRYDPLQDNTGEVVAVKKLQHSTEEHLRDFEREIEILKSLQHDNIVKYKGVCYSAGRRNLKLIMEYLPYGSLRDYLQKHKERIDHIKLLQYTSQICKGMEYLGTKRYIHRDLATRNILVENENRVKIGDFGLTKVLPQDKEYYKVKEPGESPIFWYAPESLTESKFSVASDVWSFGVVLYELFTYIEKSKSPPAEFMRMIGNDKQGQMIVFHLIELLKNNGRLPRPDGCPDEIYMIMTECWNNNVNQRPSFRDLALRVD
Chain of JAK1 kinase activity on STAT3 in TF1 cells (P23458 whole entry): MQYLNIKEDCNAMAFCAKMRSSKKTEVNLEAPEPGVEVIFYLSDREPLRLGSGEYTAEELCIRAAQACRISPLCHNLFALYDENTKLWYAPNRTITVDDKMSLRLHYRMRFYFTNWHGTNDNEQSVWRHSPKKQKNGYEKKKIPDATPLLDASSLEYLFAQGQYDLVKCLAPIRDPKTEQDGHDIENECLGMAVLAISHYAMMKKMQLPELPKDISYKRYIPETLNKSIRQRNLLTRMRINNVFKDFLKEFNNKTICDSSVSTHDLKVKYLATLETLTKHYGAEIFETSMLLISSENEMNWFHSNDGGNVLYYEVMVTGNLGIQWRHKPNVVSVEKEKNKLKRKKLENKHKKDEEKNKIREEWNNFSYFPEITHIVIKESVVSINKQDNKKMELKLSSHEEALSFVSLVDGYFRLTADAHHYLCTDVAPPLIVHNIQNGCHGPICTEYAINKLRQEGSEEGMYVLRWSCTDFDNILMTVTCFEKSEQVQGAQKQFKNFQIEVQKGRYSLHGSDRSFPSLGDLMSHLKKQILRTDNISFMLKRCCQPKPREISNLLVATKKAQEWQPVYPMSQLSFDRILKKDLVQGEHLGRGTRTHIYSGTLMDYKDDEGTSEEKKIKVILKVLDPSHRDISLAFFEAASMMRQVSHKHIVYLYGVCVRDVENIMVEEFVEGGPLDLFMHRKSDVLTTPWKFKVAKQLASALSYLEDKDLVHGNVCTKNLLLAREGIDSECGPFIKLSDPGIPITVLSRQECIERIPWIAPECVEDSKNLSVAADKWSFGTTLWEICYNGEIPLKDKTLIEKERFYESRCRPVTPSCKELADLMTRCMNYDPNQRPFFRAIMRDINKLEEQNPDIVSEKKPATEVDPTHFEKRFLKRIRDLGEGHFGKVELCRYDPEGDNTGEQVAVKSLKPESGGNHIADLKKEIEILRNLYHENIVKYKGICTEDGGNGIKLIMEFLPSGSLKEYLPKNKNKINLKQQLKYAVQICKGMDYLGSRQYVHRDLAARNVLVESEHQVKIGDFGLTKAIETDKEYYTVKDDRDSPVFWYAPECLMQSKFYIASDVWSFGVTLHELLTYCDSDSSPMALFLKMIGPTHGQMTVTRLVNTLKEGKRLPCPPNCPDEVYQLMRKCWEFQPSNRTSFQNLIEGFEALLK
Chain of JAK2 kinase activity on STAT5 in TF1 cells (O60674 whole entry): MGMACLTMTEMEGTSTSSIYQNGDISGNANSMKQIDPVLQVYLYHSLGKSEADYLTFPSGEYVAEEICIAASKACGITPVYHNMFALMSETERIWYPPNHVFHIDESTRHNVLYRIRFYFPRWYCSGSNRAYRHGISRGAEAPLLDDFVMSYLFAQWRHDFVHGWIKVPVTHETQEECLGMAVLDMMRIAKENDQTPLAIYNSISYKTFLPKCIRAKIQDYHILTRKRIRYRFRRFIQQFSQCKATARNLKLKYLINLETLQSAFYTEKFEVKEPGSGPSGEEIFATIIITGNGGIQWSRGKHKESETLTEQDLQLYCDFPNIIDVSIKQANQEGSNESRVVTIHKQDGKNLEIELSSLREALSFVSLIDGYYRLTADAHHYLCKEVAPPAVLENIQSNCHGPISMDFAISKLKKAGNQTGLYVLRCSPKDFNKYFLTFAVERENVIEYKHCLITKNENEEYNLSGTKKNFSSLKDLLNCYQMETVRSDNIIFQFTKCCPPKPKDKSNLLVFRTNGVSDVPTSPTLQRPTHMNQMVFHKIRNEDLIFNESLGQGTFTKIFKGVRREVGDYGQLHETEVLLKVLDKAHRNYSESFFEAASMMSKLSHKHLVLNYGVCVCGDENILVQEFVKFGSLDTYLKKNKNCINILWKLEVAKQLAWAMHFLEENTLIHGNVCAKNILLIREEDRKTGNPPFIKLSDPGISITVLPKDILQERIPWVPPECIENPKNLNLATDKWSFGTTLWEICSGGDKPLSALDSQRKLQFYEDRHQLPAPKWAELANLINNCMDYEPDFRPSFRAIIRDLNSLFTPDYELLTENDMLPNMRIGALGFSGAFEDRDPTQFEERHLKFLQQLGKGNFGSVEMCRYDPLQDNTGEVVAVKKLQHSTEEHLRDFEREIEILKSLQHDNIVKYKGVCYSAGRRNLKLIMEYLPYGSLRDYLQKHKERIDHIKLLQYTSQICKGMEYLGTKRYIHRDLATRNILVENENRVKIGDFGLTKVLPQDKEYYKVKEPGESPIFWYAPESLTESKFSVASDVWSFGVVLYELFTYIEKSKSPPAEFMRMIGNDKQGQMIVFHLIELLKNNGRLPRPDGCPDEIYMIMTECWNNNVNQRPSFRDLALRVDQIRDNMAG
Chain of Tyk2 kinase activity on STAT4 in NK92 cells (P29597 whole entry): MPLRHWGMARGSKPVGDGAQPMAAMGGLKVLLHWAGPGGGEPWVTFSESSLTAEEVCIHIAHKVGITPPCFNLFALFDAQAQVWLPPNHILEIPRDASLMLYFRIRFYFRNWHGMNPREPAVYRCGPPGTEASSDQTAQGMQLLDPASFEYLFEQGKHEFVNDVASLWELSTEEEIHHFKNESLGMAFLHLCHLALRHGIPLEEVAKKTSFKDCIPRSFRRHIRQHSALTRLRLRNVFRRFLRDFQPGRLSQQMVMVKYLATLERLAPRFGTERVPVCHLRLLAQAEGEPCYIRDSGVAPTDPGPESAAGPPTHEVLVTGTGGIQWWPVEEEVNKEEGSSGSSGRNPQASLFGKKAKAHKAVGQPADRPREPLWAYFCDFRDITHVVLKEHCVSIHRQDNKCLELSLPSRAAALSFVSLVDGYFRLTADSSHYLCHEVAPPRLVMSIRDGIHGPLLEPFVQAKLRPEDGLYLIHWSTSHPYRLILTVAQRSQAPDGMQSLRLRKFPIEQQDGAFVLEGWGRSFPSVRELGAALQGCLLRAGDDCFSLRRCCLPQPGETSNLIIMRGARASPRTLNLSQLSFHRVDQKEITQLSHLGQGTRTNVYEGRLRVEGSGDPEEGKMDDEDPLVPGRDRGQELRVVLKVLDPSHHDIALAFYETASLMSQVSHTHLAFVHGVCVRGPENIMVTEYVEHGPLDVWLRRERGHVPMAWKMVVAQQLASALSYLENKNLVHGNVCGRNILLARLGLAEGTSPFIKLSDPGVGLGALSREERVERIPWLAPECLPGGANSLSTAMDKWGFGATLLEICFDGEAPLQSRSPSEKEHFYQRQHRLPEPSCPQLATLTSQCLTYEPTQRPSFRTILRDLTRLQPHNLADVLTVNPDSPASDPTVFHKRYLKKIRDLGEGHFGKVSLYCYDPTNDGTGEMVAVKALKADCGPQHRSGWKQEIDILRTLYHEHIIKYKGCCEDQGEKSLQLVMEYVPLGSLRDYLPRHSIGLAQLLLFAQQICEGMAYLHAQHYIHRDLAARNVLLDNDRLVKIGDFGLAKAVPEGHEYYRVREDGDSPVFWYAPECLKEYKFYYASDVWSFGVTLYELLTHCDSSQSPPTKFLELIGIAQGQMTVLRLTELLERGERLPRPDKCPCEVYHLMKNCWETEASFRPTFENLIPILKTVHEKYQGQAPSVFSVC
T3 sequence (P52333 822-1111 limits assumed): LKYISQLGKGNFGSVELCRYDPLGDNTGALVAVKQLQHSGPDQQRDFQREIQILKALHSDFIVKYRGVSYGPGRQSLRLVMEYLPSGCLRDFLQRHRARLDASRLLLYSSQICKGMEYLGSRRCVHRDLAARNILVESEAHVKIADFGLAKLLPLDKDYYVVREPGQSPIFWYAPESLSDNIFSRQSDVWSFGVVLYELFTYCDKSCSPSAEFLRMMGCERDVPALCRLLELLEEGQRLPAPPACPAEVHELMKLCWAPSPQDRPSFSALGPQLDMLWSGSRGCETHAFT
T2 sequence (P23458 875-1153 limits assumed): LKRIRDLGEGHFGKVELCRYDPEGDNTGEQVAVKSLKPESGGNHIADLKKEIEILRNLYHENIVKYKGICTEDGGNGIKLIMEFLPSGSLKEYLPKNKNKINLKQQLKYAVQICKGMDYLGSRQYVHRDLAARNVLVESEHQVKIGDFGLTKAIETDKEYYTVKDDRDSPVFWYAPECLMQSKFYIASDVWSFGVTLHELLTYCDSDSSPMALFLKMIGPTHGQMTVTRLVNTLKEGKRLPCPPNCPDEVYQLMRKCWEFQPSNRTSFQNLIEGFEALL

pIC50 [1] | pIC50 [2] | pIC50 [3] | pIC50 [4] | pIC50 [5] | pIC50 [6] | pIC50 [7] | Structure (SMILES)
5.30 to 6.00 | 5.30 to 6.00 | 6.00 to 7.00 | < 7.00 | 7.30 to 7.70 | < 5.00 | < 5.00 | Cc1ccn(-c2cc3c(N4C[C@@H](C)[C@@](C#N)(C5CC5)C4=O)ccnn3c2)n1 [Example 334, (3R,4S)-3-cyclopropyl-4-methyl-1-(6-(3-methyl-1H-pyrazol-1-yl)pyrrolo[1,2-b]pyridazin-4-yl)-2-oxopyrrolidine-3-carbonitrile]
5.30 to 6.00 | 6.00 to 7.00 | 6.00 to 7.00 | < 7.00 | 7.30 to 7.70 | < 5.00 | < 5.00 | C[C@@H]1CN(c2ccnn3cc(-n4cccn4)cc23)C(=O)[C@]1(C#N)C1CC1 [Example 335, (3R,4S)-1-(6-(1H-pyrazol-1-yl)pyrrolo[1,2-b]pyridazin-4-yl)-3-cyclopropyl-4-methyl-2-oxopyrrolidine-3-carbonitrile]
5.30 to 6.00 | 6.00 to 7.00 | 6.00 to 7.00 | < 7.00 | 7.30 to 7.70 | < 5.00 | < 5.00 | C[C@@H]1CN(c2ccnn3cc(-n4ccnc4)cc23)C(=O)[C@]1(C#N)C1CC1 [Example 336, (3R,4S)-1-(6-(1H-imidazol-1-yl)pyrrolo[1,2-b]pyridazin-4-yl)-3-cyclopropyl-4-methyl-2-oxopyrrolidine-3-carbonitrile]
6.00 to 7.00 | 6.00 to 7.00 | 6.00 to 7.00 | < 7.00 | 7.70 to 8.30 | 5.00 to 5.30 | 5.30 to 6.00 | Cc1cn(-c2cc3c(N4C[C@@H](C)[C@@](C#N)(C5CC5)C4=O)ccnn3c2)cn1 [Example 341, (3R,4S)-3-cyclopropyl-4-methyl-1-(6-(4-methyl-1H-imidazol-1-yl)pyrrolo[1,2-b]pyridazin-4-yl)-2-oxopyrrolidine-3-carbonitrile]
6.00 to 7.00 | 6.00 to 7.00 | > 7.00 | < 7.00 | > 8.30 | 5.30 to 6.00 | 6.00 to 7.00 | C[C@@H]1CN(c2ccnc3cc(-c4cnn(C56CC(C5)C6)c4)oc23)C(=O)[C@]1(C#N)C1CC1 [Example 344, (3R,4S)-1-(2-(1-(bicyclo[1.1.1]pentan-1-yl)-1H-pyrazol-4-yl)furo[3,2-b]pyridin-7-yl)-3-cyclopropyl-4-methyl-2-oxopyrrolidine-3-carbonitrile]
6.00 to 7.00 | > 7.00 | > 7.00 | < 7.00 | > 8.30 | 5.30 to 6.00 | 5.30 to 6.00 | CC(C)n1cc(-c2cc3nccc(N4C[C@@H](C)[C@@](C#N)(C5CC5)C4=O)c3o2)cn1 [Example 346, (3R,4S)-3-cyclopropyl-1-(2-(1-isopropyl-1H-pyrazol-4-yl)furo[3,2-b]pyridin-7-yl)-4-methyl-2-oxopyrrolidine-3-carbonitrile]
6.00 to 7.00 | 6.00 to 7.00 | 6.00 to 7.00 | < 7.00 | > 8.30 | 5.00 to 5.30 | 5.30 to 6.00 | C[C@@H]1CN(c2ccnc3cc(-c4cnn(C5CC5)c4)oc23)C(=O)[C@]1(C#N)C1CC1 [Example 347, (3R,4S)-3-cyclopropyl-1-(2-(1-cyclopropyl-1H-pyrazol-4-yl)furo[3,2-b]pyridin-7-yl)-4-methyl-2-oxopyrrolidine-3-carbonitrile]
> 7.00 | > 7.00 | > 7.00 | 7.00 to 7.30 | > 8.30 | 6.00 to 7.00 | 6.00 to 7.00 | C[C@@H]1CN(c2cc(-c3cnn(C4COC4)c3)cc3ncsc23)C(=O)[C@]1(C#N)C1CC1 [Example 348, (3R,4S)-3-cyclopropyl-4-methyl-1-(5-(1-(oxetan-3-yl)-1H-pyrazol-4-yl)benzo[d]thiazol-7-yl)-2-oxopyrrolidine-3-carbonitrile]
6.00 to 7.00 | > 7.00 | > 7.00 | < 7.00 | > 8.30 | 5.30 to 6.00 | 6.00 to 7.00 | C[C@@H]1CN(c2cc(-c3cnn(C(F)F)c3)cc3ncsc23)C(=O)[C@]1(C#N)C1CC1 [Example 349, (3R,4S)-3-cyclopropyl-1-(5-(1-(difluoromethyl)-1H-pyrazol-4-yl)benzo[d]thiazol-7-yl)-4-methyl-2-oxopyrrolidine-3-carbonitrile]
6.00 to 7.00 | > 7.00 | > 7.00 | 7.00 to 7.30 | > 8.30 | 5.30 to 6.00 | 6.00 to 7.00 | C[C@@H]1CN(c2cc(-c3cnn(C)c3)cc3ncsc23)C(=O)[C@]1(C#N)C1CC1 [Example 350, (3R,4S)-3-cyclopropyl-4-methyl-1-(5-(1-methyl-1H-pyrazol-4-yl)benzo[d]thiazol-7-yl)-2-oxopyrrolidine-3-carbonitrile]
> 7.00 | > 7.00 | > 7.00 | 7.30 to 7.70 | > 8.30 | 6.00 to 7.00 | > 7.00 | C[C@@H]1CN(c2nc(-c3cnn(C(F)F)c3)cc3ncsc23)C(=O)[C@]1(C#N)C1CC1 [Example 353, (3R,4S)-3-cyclopropyl-1-(6-(1-(difluoromethyl)-1H-pyrazol-4-yl)thiazolo[5,4-c]pyridin-4-yl)-4-methyl-2-oxopyrrolidine-3-carbonitrile]
> 7.00 | > 7.00 | > 7.00 | 7.30 to 7.70 | > 8.30 | > 7.00 | > 7.00 | C[C@@H]1CN(c2nc(-c3cnn(CC(F)F)c3)cc3ncsc23)C(=O)[C@]1(C#N)C1CC1 [Example 354, (3R,4S)-3-cyclopropyl-1-(6-(1-(2,2-difluoroethyl)-1H-pyrazol-4-yl)thiazolo[5,4-c]pyridin-4-yl)-4-methyl-2-oxopyrrolidine-3-carbonitrile]
> 7.00 | > 7.00 | > 7.00 | 7.30 to 7.70 | > 8.30 | > 7.00 | > 7.00 | CO[C@H]1C[C@H](n2cc(-c3cc4ncsc4c(N4C[C@@H](C)[C@@](C#N)(C5CC5)C4=O)n3)cn2)C1 [Example 355, (3R,4S)-3-cyclopropyl-1-(6-(1-((1r,3R)-3-methoxycyclobutyl)-1H-pyrazol-4-yl)thiazolo[5,4-c]pyridin-4-yl)-4-methyl-2-oxopyrrolidine-3-carbonitrile]
> 7.00 | > 7.00 | > 7.00 | 7.30 to 7.70 | > 8.30 | > 7.00 | 6.00 to 7.00 | C[C@@H]1CN(c2nc(-c3cnn(C4CC(C#N)C4)c3)cc3ncsc23)C(=O)[C@]1(C#N)C1CC1 (stereo partly drawn) [Example 356, (3R,4S)-1-(6-(1-(3-cyanocyclobutyl)-1H-pyrazol-4-yl)thiazolo[5,4-c]pyridin-4-yl)-3-cyclopropyl-4-methyl-2-oxopyrrolidine-3-carbonitrile]
> 7.00 | > 7.00 | > 7.00 | 7.30 to 7.70 | > 8.30 | > 7.00 | > 7.00 | C[C@@H]1CN(c2nc(-c3cnn(C4CC4)c3)cc3ncsc23)C(=O)[C@]1(C#N)C1CC1 [Example 357, (3R,4S)-3-cyclopropyl-1-(6-(1-cyclopropyl-1H-pyrazol-4-yl)thiazolo[5,4-c]pyridin-4-yl)-4-methyl-2-oxopyrrolidine-3-carbonitrile]
> 7.00 | > 7.00 | > 7.00 | 7.00 to 7.30 | > 8.30 | 6.00 to 7.00 | 6.00 to 7.00 | C[C@@H]1CN(c2nc(-c3cnn(C4CN(C)C4)c3)cc3ncsc23)C(=O)[C@]1(C#N)C1CC1 [Example 358, (3R,4S)-3-cyclopropyl-4-methyl-1-(6-(1-(1-methylazetidin-3-yl)-1H-pyrazol-4-yl)thiazolo[5,4-c]pyridin-4-yl)-2-oxopyrrolidine-3-carbonitrile]
